Patent publication US7323485B2, “4-(substituted cycloalkylmethyl) imidazole-2-thiones, 4-(substituted cycloalkenylmethyl) imidazole-2-thiones, 4-(substituted cycloalkylmethyl) imidazol-2-ones and 4-(substituted cycloalkenylmethyl) imidazol-2-ones and related compounds” (Allergan, Inc., priority 2002, dated 2008)
pEC50: −log10 of the molar value.

How the values were obtained:
[1] = target: T1, alpha2B adrenergic receptors (Homo sapiens, UniProt P18089); experiment: Receptor Selection and Amplification Technology (RSAT) assay, alpha2B; type: cell-based; conditions: for pEC50: NA = not active at concentrations less than 10 micromolar, read-out: Alpha 2B EC50; for Alpha 2B intrinsic activity: fraction of maximal effect of standard full agonist brimonidine (UK14304)
T1 construct: expressed in transfected cells; host or cells: NIH-3T3
T1 sequence (P18089 1-450): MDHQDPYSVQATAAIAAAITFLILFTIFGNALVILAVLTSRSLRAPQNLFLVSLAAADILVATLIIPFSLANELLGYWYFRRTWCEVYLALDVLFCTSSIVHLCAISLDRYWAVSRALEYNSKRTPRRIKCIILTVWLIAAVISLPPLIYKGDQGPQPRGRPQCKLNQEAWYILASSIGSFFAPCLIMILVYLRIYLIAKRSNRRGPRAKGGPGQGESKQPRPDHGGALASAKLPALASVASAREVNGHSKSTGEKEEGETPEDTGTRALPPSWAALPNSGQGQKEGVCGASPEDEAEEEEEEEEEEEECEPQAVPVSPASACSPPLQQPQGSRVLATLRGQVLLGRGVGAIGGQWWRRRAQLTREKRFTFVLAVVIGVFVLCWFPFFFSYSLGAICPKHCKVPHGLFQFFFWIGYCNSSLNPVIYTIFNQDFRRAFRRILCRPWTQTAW
From the text: (§1) The imidazole-2-thione compounds of the invention are agonists of alpha2 adrenergic receptors, particularly they tend to be specific or selective agonists of alpha2B and/or to a lesser extent alpha2C adrenergic receptors, in preference over alpha2A adrenergic receptors. […] Al., 1995, Pharmacol. Toxicol. 76, pp. 308-311 (incorporated herein by reference) and is also described below. Another reference pertinent to this assay is Conklin et al. (1993) Nature 363:274-6, also incorporated herein by reference.
(§2) Receptor Selection and Amplification Technology (RSAT) Assay
(§3) The RSAT assay measures a receptor-mediated loss of contact inhibition that results in selective proliferation of receptor-containing cells in a mixed population of confluent cells. The increase in cell number is assessed with an appropriate transfected marker gene such as β-galactosidase, the activity of which can be easily measured in a 96-well format. Receptors that activate the G protein, Gq, elicit this response. Alpha2 receptors, which normally couple to Gi, activate the RSAT response when coexpressed with a hybrid Gq protein that has a Gi receptor recognition domain, called Gq/i5.
(§4) NIH-3T3 cells are plated at a density of 2×10^6 cells in 15 cm dishes and maintained in Dulbecco's modified Eagle's medium supplemented with 10% calf serum. One day later, cells are cotransfected by calcium phosphate precipitation with mammalian expression plasmids encoding p-SV-β-galactosidase (5-10 μg), receptor (1-2 μg) and G protein (1-2 μg). 40 μg salmon sperm DNA may also be included in the transfection mixture. Fresh media is added on the following day and 1-2 days later, cells are harvested and frozen in 50 assay aliquots. Cells are thawed and 100 μl added to 100 μl aliquots of various concentrations of drugs in triplicate in 96-well dishes. Incubations continue 72-96 hr at 37 EC. After washing with phosphate-buffered saline, β-galactosidase enzyme activity is determined by adding 200 μl of the chromogenic substrate (consisting of 3.5 mM o-nitrophenyl-β-D-galactopyranoside and 0.5% nonidet P-40 in phosphate buffered saline), incubating overnight at 30 EC and measuring optical density at 420 nm. The absorbance is a measure of enzyme activity, which depends on cell number and reflects a receptor-mediated cell proliferation. The EC50 and maximal effect of each drug at each alpha2 receptor is determined. The efficacy or intrinsic activity is calculated as a ratio of the maximal effect of the drug to the maximal effect of a standard full agonist for each receptor subtype. Brimonidine, also called UK14304, the chemical structure of which is shown below, is used as the standard agonist for the alpha2A, alpha2B and alpha2C receptors.
(§5) The results of the RSAT assay with several exemplary compounds of the invention are disclosed in Table 1 above together with the chemical formulas of these examplary compounds. […] NA stands for “not active” at concentrations less than 10 micromolar. As is known EC50 is the concentration at which half of a given compound's maximal activity is observed.

[2] = target: T2, alpha2C adrenergic receptors (Homo sapiens, UniProt P18825); experiment: Receptor Selection and Amplification Technology (RSAT) assay, alpha2C; type: cell-based; conditions: for pEC50: NA = not active at concentrations less than 10 micromolar, read-out: Alpha 2C EC50; for Alpha 2C intrinsic activity: fraction of maximal effect of standard full agonist brimonidine (UK14304)
T2 construct: expressed in transfected cells; host or cells: NIH-3T3
T2 sequence (P18825 1-462): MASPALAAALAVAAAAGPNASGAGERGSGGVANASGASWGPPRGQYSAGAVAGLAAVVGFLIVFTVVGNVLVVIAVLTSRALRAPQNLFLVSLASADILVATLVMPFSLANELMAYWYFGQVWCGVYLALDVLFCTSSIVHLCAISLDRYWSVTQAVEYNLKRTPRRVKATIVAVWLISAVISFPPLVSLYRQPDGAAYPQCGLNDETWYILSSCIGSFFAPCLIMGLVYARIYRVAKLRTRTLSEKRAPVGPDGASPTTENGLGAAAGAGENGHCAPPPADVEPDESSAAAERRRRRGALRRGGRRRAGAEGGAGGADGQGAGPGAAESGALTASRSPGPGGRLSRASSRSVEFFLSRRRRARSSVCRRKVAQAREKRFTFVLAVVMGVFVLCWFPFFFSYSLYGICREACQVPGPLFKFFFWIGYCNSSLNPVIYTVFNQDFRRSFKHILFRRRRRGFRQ
From the text: as §1, §2, §3, §4, §5

SMILES | pEC50 [1] | Alpha 2B intrinsic activity [1] | pEC50 [2] | Alpha 2C intrinsic activity [2]
CC1=CC(Cc2c[nH]c(=S)[nH]2)CC1 (stereo not shown) | 7.09 | 0.81 | – | –
S=c1[nH]cc(CC2CCC3=C(CCCC3)C2)[nH]1 (stereo not shown) | 7.07 | 0.78 | – | –
O=C1c2ccsc2CCC1Cc1c[nH]c(=S)[nH]1 (stereo not shown) | 6.97 | 0.97 | – | –
O=C1C2=C(CCCC2)CCC1Cc1c[nH]c(=S)[nH]1 (stereo not shown) | 6.09 | 0.83 | – | –
O=C1c2ccccc2CCC1Cc1c[nH]c(=S)[nH]1 (stereo not shown) | 7.74 | 1.0 | – | –
S=c1[nH]cc(CC2CCc3cc(Cl)ccc32)[nH]1 (stereo not shown) | 5.94 | 0.37 | – | –
CCC1=C(C)CCC(Cc2c[nH]c(=S)[nH]2)C1 (stereo not shown) | 8.22 | 1.08 | – | –
S=c1[nH]cc(CC2CCc3ccccc3C2)[nH]1 (stereo not shown) | 7.77 | 0.65 | – | –
O=C1c2ccccc2CC1Cc1c[nH]c(=S)[nH]1 (stereo not shown) | 6.07 | 0.71 | – | –
CC1=C(C)CC(Cc2c[nH]c(=S)[nH]2)CC1 (stereo not shown) | 7.60 | 0.61 | – | –
O=C1c2ccc(O)cc2CCC1Cc1c[nH]c(=S)[nH]1 (stereo not shown) | 6.00 | 0.48 | – | –
CCC1=CCC(Cc2c[nH]c(=S)[nH]2)CC1 (stereo not shown) | 6.35 | 0.68 | – | –
C#CC1=CCC(Cc2c[nH]c(=S)[nH]2)CC1 (stereo not shown) | 6.58 | 0.60 | – | –
CC1=CCC(Cc2c[nH]c(=S)[nH]2)CC1 (stereo not shown) | 7.21 | 0.72 | – | –
O=C1c2ccccc2CC[C@H]1Cc1c[nH]c(=S)[nH]1 | 7.39 | 0.83 | – | –
O=C1c2ccccc2CC[C@@H]1Cc1c[nH]c(=S)[nH]1 | 7.04 | 0.79 | – | –
S=c1[nH]cc(C2CCc3ccccc3CC2)[nH]1 | 7.77 | 0.82 | – | –
S=c1[nH]cc(CC2CCSc3ccccc32)[nH]1 (stereo not shown) | 6.54 | 1.16 | – | –
O=C1c2cccnc2CCC1Cc1c[nH]c(=S)[nH]1 (stereo not shown) | 6.14 | 0.6 | – | –
S=c1[nH]cc(C[C@H]2CCc3ccccc3C2)[nH]1 | 6.40 | 0.41 | – | –
S=c1[nH]cc(C[C@@H]2CCc3ccccc3C2)[nH]1 | 7.86 | 0.93 | – | –
S=c1[nH]cc(C[C@@H]2CCC3=C(CCCC3)C2)[nH]1 | 7.22 | 0.73 | – | –
O=C1c2ccc(F)cc2CCC1Cc1c[nH]c(=S)[nH]1 (stereo not shown) | 6.52 | 0.76 | – | –
O=C1c2c(Cl)cccc2CCC1Cc1c[nH]c(=S)[nH]1 (stereo not shown) | 6.94 | 0.99 | – | –

SMILES | pEC50 [1] | Alpha 2B intrinsic activity [1] | pEC50 [2] | Alpha 2C intrinsic activity [2]
S=c1[nH]cc(CC2Cc3ccccc3C2)[nH]1 | 6.96 | 0.65 | – | –
S=c1[nH]cc(C2Cc3ccccc3C2)[nH]1 | 8.22 | 0.98 | – | –
Fc1ccc2c(c1)CC(c1c[nH]c(=S)[nH]1)C2 (stereo not shown) | 7.52 | 0.75 | – | –
S=c1[nH]cc(C2Cc3ccc(Cl)cc3C2)[nH]1 (stereo not shown) | 7.24 | 0.85 | – | –
C[C@@H]1c2ccccc2C[C@H]1c1c[nH]c(=S)[nH]1 | 8.30 | 1.03 | – | –
Fc1cccc2c1CCC2Cc1c[nH]c(=S)[nH]1 (stereo not shown) | 7.46 | 0.93 | – | –
Fc1ccc2c(c1F)CCC2Cc1c[nH]c(=S)[nH]1 (stereo not shown) | 6.08 | 0.54 | – | –
Cc1ccc(C)c2c1CCC2Cc1c[nH]c(=S)[nH]1 (stereo not shown) | 6.98 | 0.64 | – | –
S=c1[nH]cc(CC2CCCc3cccc(Cl)c32)[nH]1 (stereo not shown) | 7.13 | 0.78 | – | –
S=c1[nH]cc(CC2CCc3ncccc3C2)[nH]1 (stereo not shown) | 5.80 | 0.74 | – | –
Fc1cc(F)c2c(c1)CC(c1c[nH]c(=S)[nH]1)C2 (stereo not shown) | 8.19 | 0.81 | – | –
COc1cc(F)c2c(c1)CC(c1c[nH]c(=S)[nH]1)C2 (stereo not shown) | 7.66 | 1.02 | – | –
S=c1[nH]cc(CC2CCc3c(Cl)cccc32)[nH]1 (stereo not shown) | 7.50 | 0.91 | – | –
N#C/C=C1\c2ccccc2CCC1Cc1c[nH]c(=S)[nH]1 (stereo not shown) | 6.80 | 0.94 | – | –
N#C/C=C1/c2ccccc2CCC1Cc1c[nH]c(=S)[nH]1 (stereo not shown) | 6.00 | 0.5 | – | –
CC1=CCC(Cc2c[nH]c(=S)[nH]2)OC1 (stereo not shown) | 6.33 | 0.87 | – | –
S=c1[nH]cc(CC2CCC=C2c2ccccc2)[nH]1 (stereo not shown) | – | – | 6.67 | 0.68
Fc1cccc(C2=CCCC2Cc2c[nH]c(=S)[nH]2)c1 (stereo not shown) | – | – | 6.72 | 0.45
Fc1ccc(C2=CCC[C@H]2Cc2c[nH]c(=S)[nH]2)cc1 | – | – | 6.15 | 0.61
Fc1cccc(C2=CCC[C@@H]2Cc2c[nH]c(=S)[nH]2)c1 | 5.83 | 0.66 | – | –
Fc1cc(F)cc(C2=CCCC2Cc2c[nH]c(=S)[nH]2)c1 (stereo not shown) | – | – | 6.62 | 0.66
CC(C)C1=C(c2ccc(F)cc2)C(Cc2c[nH]c(=S)[nH]2)CC1 (stereo not shown) | 6.57 | 0.79 | – | –
S=c1[nH]cc(CC2CCc3sccc3C2)[nH]1 (stereo not shown) [drawing 22] | 7.85 | 0.74 | – | –
